In patent US20230242679A1, “BISPECIFIC ANTIBODY THERAPIES” (priority 2022, published 2023):
“Also recorded” adds a separate entry of the source. Where two headings read alike, the source gives them in different places.

Assays:
[1] = test system: CD19-targeting CAR T-cells co-cultured with CD19+Raji lymphoma target cells; assay: Cytokine levels in co-culture of CD19 CAR T-cells with Raji cells; type: cell-based, human; settings: for Levels of IL-6 / Levels of TNF-α / Levels of IFN-γ: CAR T-cells:Raji cells 10:1; for Levels of IL-6: FIG. 1A; for Levels of TNF-α: FIG. 1B; for Levels of IFN-γ: FIG. 1C
Source text: The impact of CT01681 on the efficacy of CD19-targeting CAR T-cells in vitro was studied as a surrogate measure of the impact of CTO1681 on T cell function downstream of administering bispecific antibody therapy to a subject. […] CD3 T cells were sorted from one healthy donor PBMCs, stimulated for a short period of time and transduced with CD19 CAR-T lentivirus (LV) containing CD28 and CD3ζ domains. CD19 CAR T-cells were expanded for 6 days and used in the assay. CD19-targeting CD3 T-cells were treated with 5 increasing concentrations of CT01681 (0.36 nM, 1.8 nM, 9 nM, 45 nM, and 225 nM) or vehicle for 30 minutes prior to, and during co-culture with CD19+Raji lymphoma target cells. Media alone, vehicle, and positive control (dexamethasone) wells were included. Following initial treatment, CAR T-cells (Effectors) were co-cultured with fluorescently labeled CD19+Raji tumor cells (Target cells) at 3 different Effector: Target cell ratios (10:1, 5:1 and 1:1) and treated with 5 different concentrations of CT01681 or vehicle for 24 hours. Target cells (Raji cells) were fluorescently labelled with CPD (eBioscience™ Cell Proliferation Dye eFluor™) prior to co-culture to distinguish the Raji cells from the effector cells and allow for analysis of target viability by flow cytometry. Following incubation, supernatant was collected and levels of pro-inflammatory cytokines IL-6 and TNF-α were measured by multiplex Luminex assay and […] was measured via time-resolved fluorescence resonance energy transfer (TR-FRET) assay. These cytokines were selected for quantification as they are early cytokines released following CAR T-cell infusion and bispecific antibody therapy administration in vivo that causes hyperactivation of the immune system resulting in acute systemic inflammation, CRS, multiorgan failure, and possible death. In addition, flow cytometry was used to measure the level of Raji tumor/target cell death following CAR T treatment across CTO1681 conditions to measure impact of CTO1681 with CAR T-cell efficacy. Co-cultures were stained with viability dye 7-AAD for measuring viability.

influenza (H1N1) = type: in vivo, mice; settings: for IL-2 in vivo / IL-6 in vivo / IL-10 in vivo: CytoAgents in vivo influenza (H1N1) studies
CD19+Raji tumor cells = assay: Raji target cell killing by CD19 CAR T-cells (flow cytometry, 7-AAD); type: cell-based, human; settings: 0.36-225 nM; 24 hours; Effector:Target 10:1, 5:1, 1:1; listed as CT01681, monosodium salt
Source text: The impact of CT01681 on the efficacy of CD19-targeting CAR T-cells in vitro was studied as a surrogate measure of the impact of CTO1681 on T cell function downstream of administering bispecific antibody therapy to a subject. […] CD3 T cells were sorted from one healthy donor PBMCs, stimulated for a short period of time and transduced with CD19 CAR-T lentivirus (LV) containing CD28 and CD3ζ domains. CD19 CAR T-cells were expanded for 6 days and used in the assay. CD19-targeting CD3 T-cells were treated with 5 increasing concentrations of CT01681 (0.36 nM, 1.8 nM, 9 nM, 45 nM, and 225 nM) or vehicle for 30 minutes prior to, and during co-culture with CD19+Raji lymphoma target cells. Media alone, vehicle, and positive control (dexamethasone) wells were included. […] Following incubation, supernatant was collected and levels of pro-inflammatory cytokines IL-6 and TNF-α were measured by multiplex Luminex assay and […] was measured via time-resolved fluorescence resonance energy transfer (TR-FRET) assay. These cytokines were selected for quantification as they are early cytokines released following CAR T-cell infusion and bispecific antibody therapy administration in vivo that causes hyperactivation of the immune system resulting in acute systemic inflammation, CRS, multiorgan failure, and possible death. […]

normal human PBMC = assay: Cytokine release assay in normal human PBMC stimulated with LPS or Poly (I:C); type: cell-based; settings: for Number of cytokines reduced of those analyzed: LPS or Poly(I:C), pooled and individual donor results
[2] = test system: CRS in SCID or humanized mice with Raji-luc tumor cells; assay: Mouse model of Raji-luc tumor with CAR-T induced CRS (Example 2); settings: IP, BID for 7 days
influenza (H5N1) = settings: Gemmus Pharma in vivo influenza (H5N1) studies; listed as CT01681, monosodium salt; cited from earlier work
[3] = listed as CT01681, monosodium salt
[4] = Effector:Target 10:1, 0.36-225 nM, 24 hours, Luminex
[5] = LPS, 24 h supernatant, CTO1681 750 μM
[6] = Poly(I:C), 24 h supernatant, CTO1681 750 μM

CC#CC[C@H](C)[C@H](O)/C=C/[C@@H]1[C@H]2c3cccc(CCCC(=O)[O-])c3O[C@H]2C[C@H]1O.[Na+] [CTO1681, (+)-[1R, 2R, 3aS, 8bS]-2,3,3a,8b-tetrahydro-2-hydroxy-1-[(E)-(3S,4S)-3-hydroxy-4-methyl-1-octen-6-ynyl)-1Hcyclopenta[b]benzofuran-5-butanoic acid, monosodium salt]
Levels of IL-6 [1, 3]: dose-dependently lowers | Levels of IL-6 ([1]; monosodium salt): dose-dependently reduced | Levels of TNF-α [1, 3]: dose-dependently lowers | Levels of TNF-α ([1]; monosodium salt): dose-dependently reduced | Levels of IFN-γ [1, 3]: dose-dependently lowers | Levels of IFN-γ ([1]; monosodium salt): dose-dependently reduced | Maximum reduction of IL-6 [1, 4]: ~23% | Maximum reduction of TNF-α [1, 4]: approximately 50% | Maximum reduction of IFN-γ ([1]; Effector:Target 10:1, 0.36-225 nM, 24 hours, TR-FRET): ~26% | IL-6 with increasing concentrations ([1]; three CAR-T:Raji ratios (10:1, 5:1, 1:1), FIG. 1D): reduction | TNF-α with increasing concentrations ([1]; three CAR-T:Raji ratios (10:1, 5:1, 1:1), FIG. 1E): reduction | IFN-γ with increasing concentrations ([1]; three CAR-T:Raji ratios (10:1, 5:1, 1:1), FIG. 1F): reduction | IL-2 in vivo (influenza (H1N1); [3]): significantly suppressed | IL-6 in vivo (influenza (H1N1); [3]): significantly suppressed | IL-10 in vivo (influenza (H1N1); [3]): significantly suppressed | IL-2 in vivo (influenza (H1N1); monosodium salt): reduced | IL-6 in vivo (influenza (H1N1); monosodium salt): reduced | IL-10 in vivo (influenza (H1N1); monosodium salt): reduced | IL-8 in vivo (influenza (H1N1); mouse, in vivo): significantly suppressed | IFN-α concentrations in vivo (influenza (H1N1); mouse, in vivo, listed as CT01681, monosodium salt): no significant repression | IFN-α concentrations in vivo (influenza (H1N1); mouse, in vivo, monosodium salt): not suppressed | Effect on tumor/target cell killing efficacy of CD19 CAR T-cells (CD19+Raji tumor cells): does not interfere; also recorded: absence of an effect; also recorded: did not impact or interfere | Nominal reduction in ex vivo production of IFNα (normal human PBMC; LPS or Poly(I:C) stimulated PBMC, statistically significant): less than 2 fold | Number of cytokines reduced of those analyzed (normal human PBMC; [3]): 21 of the 29 | Number of cytokines reduced of those analyzed (normal human PBMC; monosodium salt): 21 | Cytokine response CCL2 (MCP-1) (significant reduction) (normal human PBMC; [5]): YES | Cytokine response CCL3 (MIP1 α) (significant reduction) (normal human PBMC; [5]): YES | Cytokine response CCL5 (RANTES) (significant reduction) (normal human PBMC; [5]): YES | Cytokine response CXCL9 (MIG) (significant reduction) (normal human PBMC; [5]): YES | Cytokine response CXCL10 (IP-10) (significant reduction) (normal human PBMC; [5]): YES | Cytokine response FGF (significant reduction) (normal human PBMC; [5]): YES | Cytokine response GM-CSF (significant reduction) (normal human PBMC; [5]): YES | Cytokine response IFN-α2 (significant reduction) (normal human PBMC; [5]): YES | Cytokine response IFN-γ (significant reduction) (normal human PBMC; [5]): YES | Cytokine response IL-1α (significant reduction) (normal human PBMC; [5]): YES | Cytokine response IL-1β (significant reduction) (normal human PBMC; [5]): YES | Cytokine response IL-4 (significant reduction) (normal human PBMC; [5]): YES | Cytokine response IL-5 (significant reduction) (normal human PBMC; [5]): YES | Cytokine response IL-9 (significant reduction) (normal human PBMC; [5]): YES | Cytokine response IL-12 (significant reduction) (normal human PBMC; [5]): YES | Cytokine response IL-13 (significant reduction) (normal human PBMC; [5]): YES | Cytokine response IL-15 (significant reduction) (normal human PBMC; [5]): YES | Cytokine response IL-17 (significant reduction) (normal human PBMC; [5]): YES | Cytokine response IL-18 (significant reduction) (normal human PBMC; [5]): YES | Cytokine response PDGF (significant reduction) (normal human PBMC; [5]): YES | Cytokine response TNF-α (significant reduction) (normal human PBMC; [5]): YES | Cytokine response CCL2 (MCP-1) (significant reduction) (normal human PBMC; [6]): YES | Cytokine response CCL5 (RANTES) (significant reduction) (normal human PBMC; [6]): YES | Cytokine response CXCL9 (MIG) (significant reduction) (normal human PBMC; [6]): YES | Cytokine response CXCL10 (IP-10) (significant reduction) (normal human PBMC; [6]): YES | Cytokine response IFN-α2 (significant reduction) (normal human PBMC; [6]): YES | Cytokine response IFN-γ (significant reduction) (normal human PBMC; [6]): YES | Cytokine response IL-1α (significant reduction) (normal human PBMC; [6]): YES | Cytokine response IL-1β (significant reduction) (normal human PBMC; [6]): YES | Cytokine response IL-4 (significant reduction) (normal human PBMC; [6]): YES | Cytokine response IL-5 (significant reduction) (normal human PBMC; [6]): YES | Cytokine response IL-12 (significant reduction) (normal human PBMC; [6]): YES | Cytokine response IL-13 (significant reduction) (normal human PBMC; [6]): YES | Cytokine response IL-15 (significant reduction) (normal human PBMC; [6]): YES | Cytokine response IL-18 (significant reduction) (normal human PBMC; [6]): YES | Cytokine response PDGF (significant reduction) (normal human PBMC; [6]): YES | Cytokine response TNF-α (significant reduction) (normal human PBMC; [6]): YES | Survival benefits versus dexamethasone [2]: greater survival benefits | IL-2 in vivo (influenza (H5N1)): reduced; also recorded: significantly suppressed | IL-6 in vivo (influenza (H5N1)): reduced; also recorded: significantly suppressed | IL-8 in vivo (influenza (H5N1)): reduced; also recorded: significantly suppressed | IL-10 in vivo (influenza (H5N1)): reduced; also recorded: significantly suppressed
